From patent US12558428B2, “Heterobifunctional compounds and their use in treating disease” (Halda Therapeutics OpCo, Inc., priority 2024, dated 2026) come the findings set out here.

The test system of test [1] is T-Rex 293 cells having increased expression of estrogen receptor alpha protein. In words: Cellular growth inhibition assay, T-Rex 293 cells, (+) doxycycline. The class given is cell-based. The following applies: T-REx-293, 72 h, T-Rex 293 cells with doxycycline-induced ERα expression, 72 hours, CellTiter-Glo 2.0; read-out: (+) Dox TRex ERa (GI50). Put shortly: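 Viability read-out was CellTiter-Glo 2.0 luminescence after 72 h compound exposure, normalized to zero luminescence and fitted by four-parameter regression to give GI50. Cells were an ERα-inducible T-Rex 293 clone cultured with or without 3 ng/mL doxycycline in charcoal-stripped, phenol red-free medium.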
(In general: In ATP-based viability assays light output follows the ATP content of the culture.)

Test [2] concerns the target T1, BRD4-BD2 (Homo sapiens, UniProt O60885).
T1 construct: made in house; host or cells: T7 phage grown in E. coli host derived from BL21
In words: Binding affinity to BRD4-BD2 (bromoKdELECT assay). The method, then: Exemplary compounds were tested for ability to bind to BRD4-BD2.
Compounds were tested using a bromoKdELECT assay. T7 phage strains displaying bromodomains were grown in parallel in 24-well blocks in an E. coli host derived from the BL21 strain. E. coli were grown to log-phase and infected with T7 phage from a frozen stock (multiplicity of infection=0.4) and incubated with shaking at 32° C. until lysis (90-150 minutes). The lysates were centrifuged (5,000×g) and filtered ([…]) to remove cell debris. Streptavidin-coated magnetic beads were treated with biotinylated small molecule or acetylated peptide ligands for 30 minutes at room temperature to generate affinity resins for bromodomain assays. The liganded beads were blocked with excess biotin and washed with blocking buffer (SeaBlock (Pierce), 1% BSA, 0.05% Tween 20, 1 mM DTT) to remove unbound ligand and to reduce nonspecific phage binding. Binding reactions were assembled by combining bromodomains, liganded affinity beads, and test compounds in 1× binding buffer (17% SeaBlock, 0.33×PBS, 0.04% Tween 20, 0.02% BSA, 0.004% Sodium azide, 7.4 mM DTT). Test compounds were prepared as 1000× stocks in 100% DMSO. Kds were determined using an 11-point 3-fold compound dilution series with one DMSO control point. […] The bromodomain concentration in the eluates was measured by qPCR.

Some results are limits rather than exact numbers.

A word on the GI50: it is the concentration at which growth is held to half of that of the control. The term Kd denotes the constant that tells how readily two partners part at equilibrium. `CCN(CCCCCCCCNC(=O)C[C@@H]1N=C(c2ccc(Cl)cc2)c2c(sc(C)c2C)-n2c(C)nnc21)CCOc1ccc(C(=O)c2c(-c3ccc(O)cc3)sc3cc(O)ccc23)cc1` [I-2, (S)-2-(4-(4-chlorophenyl)-2,3,9-trimethyl-6H-thieno[3,2-f][1,2,4]triazolo[4,3-a][1,4]diazepin-6-yl)-N-(8-(ethyl(2-(4-(6-hydroxy-2-(4-hydroxyphenyl)benzo[b]thiophene-3-carbonyl)phenoxy)ethyl)amino)octyl)acetamide]: the GI50 in test [1] was 50 to 500 nM. This compound also registered a Kd in test [2] of less than 50 nM.

Regarding `CCN(CCOCCOCCNC(=O)C[C@@H]1N=C(c2ccc(Cl)cc2)c2c(sc(C)c2C)-n2c(C)nnc21)CCOc1ccc(C(=O)c2c(-c3ccc(O)cc3)sc3cc(O)ccc23)cc1` [I-3, (S)-2-(4-(4-chlorophenyl)-2,3,9-trimethyl-6H-thieno[3,2-f][1,2,4]triazolo[4,3-a][1,4]diazepin-6-yl)-N-(2-(2-(2-(ethyl(2-(4-(6-hydroxy-2-(4-hydroxyphenyl)benzo[b]thiophene-3-carbonyl)phenoxy)ethyl)amino)ethoxy)ethoxy)ethyl) acetamide], the GI50 in test [1] was 50 to 500 nM. In test [2], this compound came in with a Kd of less than 50 nM.
